Test results taken from patent publication US20120321609A1, “METHOD OF TREATING PSYCHOLOGICAL DISORDERS” (priority 2011, published 2012).

Key:
5-HT2AR = target: T1, 5-HT2AR (Homo sapiens, UniProt P28223); experiment: 5-HT-stimulated inositol phosphate formation in HEK 293 cells transfected with FLAG-5-HT2AR and HA-CRFR1; assay type: cell-based
T1 construct: expressed in transfected cells; host or cells: HEK 293

5-HT2CR = target: T2, 5-HT2CR (Homo sapiens, UniProt P28335); experiment: 5-HT-stimulated inositol phosphate formation in HEK 293 cells transfected with FLAG-5-HT2CR and HA-CRFR1; assay type: cell-based
T2 construct: expressed in transfected cells; host or cells: HEK 293
T2 sequence (P28335 33-458): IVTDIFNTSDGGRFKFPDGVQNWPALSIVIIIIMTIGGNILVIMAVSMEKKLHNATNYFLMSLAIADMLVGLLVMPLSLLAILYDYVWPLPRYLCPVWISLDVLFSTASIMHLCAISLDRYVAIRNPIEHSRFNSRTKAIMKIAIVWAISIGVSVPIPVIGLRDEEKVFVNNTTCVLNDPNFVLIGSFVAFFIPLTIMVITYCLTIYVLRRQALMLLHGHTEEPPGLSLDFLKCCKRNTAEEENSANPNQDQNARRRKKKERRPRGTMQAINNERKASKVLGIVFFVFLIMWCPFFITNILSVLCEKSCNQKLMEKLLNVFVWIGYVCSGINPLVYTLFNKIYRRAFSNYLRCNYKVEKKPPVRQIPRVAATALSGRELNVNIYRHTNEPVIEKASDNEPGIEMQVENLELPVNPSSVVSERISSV

mice = experiment: Elevated plus maze test (anxiety-related behaviour); assay type: in vivo, mouse; details: DOI 0.15 mg/kg i.p.
Procedure: Male CD-1 mice were obtained from Charles River Canada (St. Constant, Quebec) at 50-60 days of age, and were acclimatized to the laboratory for approximately 30 days before serving as experimental subjects. Mice were housed four per cage, until the time of surgery, after which they were housed individually. The vivarium was maintained on a 12-h light/dark cycle in a temperature (21° C.) controlled room with food and water freely available. Mice were anesthetized using isoflurane and stereotaxic surgery (David Kopf Instruments Model 940) was performed to install a cannulae into the medial prefrontal cortex. A Guide cannulae (Plastics One In), situated according to the mouse atlas of Franklin and Paxinos at Lateral=0.32 mm, D/V=2.25 mm, A/P=+2.68 mm. A dummy cannula, was inserted flush with guide. Approximately 1 week after behavioral testing mice were perfused with 4% paraformaldehyde. Brains were subsequently sectioned at 14 microns and stained with Cresyl violet for probe placement verification. Only the data from mice with correct probe placements were used in the analysis of the behavioral tests.
Drug diffusion was permitted for 5 min, and then after a further 5 min period mice were injected intraperotineally with DOI (Sigma) at a dose of 0.15 mg/kg or saline. Behavioral testing was conducted 15 min after the DOI treatment. In a second experiment the procedure was identical to that of the preceding study, except that mice were pretreated i.p. with either vehicle or 0.25 mg/kg of M100907 in a volume of 0.3 ml immediately prior to the DOI treatment. As in the preceding study mice were then tested in the elevated plus maze test (n=6-8)/group. Once again, data were obtained from videotapes and the researcher was blind as to the treatments mice had received.
In an initial test, mice were placed in a 45×45 cm open field, with an inner square of 21×24×24 cm., for a 5 min period, during which the time to enter the center area, and the total time spent in the center portion of the arena was recorded. The plus maze test was then conducted 1 min after the open field assessment. Mice were individually placed in one of the enclosed arms of a plus-maze and the behavior of the animals was recorded over a 5 min period by a ceiling-mounted video camera. The amount of time spent in each of the arms, the number of arm entries (an arm entry was defined as all four of the paws being placed in an arm of the plus-maze). The elevated plus-maze had two arms enclosed by 21 cm high walls; whereas the remaining two arms were open (arms were 24.8 cm long×7.7 cm wide). The maze was situated in a dimly lit room, such that the closed arms were darkened, whereas open arms were somewhat illuminated. All behavioural experiments were blinded. All experiments complied with the guidelines set by the Canadian Council on Animal Care and were approved by the Carleton University Animal Care Committee.

HA-CRFR1 = target: T3, HA-CRFR1 (Homo sapiens, UniProt P34998); experiment: Receptor endocytosis by flow cytometry in HEK 293 cells; assay type: cell-based; details: 500 nM CRF for 30 min at 37° C.; cells expressing only wild-type CRFR1
T3 construct: expressed in transfected cells; host or cells: HEK 293
T3 sequence (P34998 24-415): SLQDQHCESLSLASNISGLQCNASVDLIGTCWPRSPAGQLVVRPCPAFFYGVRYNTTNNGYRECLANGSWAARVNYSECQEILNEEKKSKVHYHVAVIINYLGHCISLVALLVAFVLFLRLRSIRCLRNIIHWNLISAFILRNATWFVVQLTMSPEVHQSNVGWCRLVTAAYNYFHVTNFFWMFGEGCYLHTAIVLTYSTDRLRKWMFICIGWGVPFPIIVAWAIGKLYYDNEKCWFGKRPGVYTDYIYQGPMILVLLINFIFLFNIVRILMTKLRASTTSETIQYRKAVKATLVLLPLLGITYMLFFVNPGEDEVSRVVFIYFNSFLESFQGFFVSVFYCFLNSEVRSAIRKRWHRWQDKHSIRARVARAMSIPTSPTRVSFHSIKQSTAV
Procedure: Cells were seeded on 10 cm dishes at 70-80% density 24 h prior to transfection. Transfection was performed using a modified calcium phosphate method, as described previously (Ferguson et al. (2004) Methods Mol. Biol. 237, 121-126). 1 μg of each construct was used for each transfection, with the exception that 3 μg of plasmid cDNA was used for all shRNA constructs. Empty pcDNA3.1 vector was used to equalize the total amount of plasmid cDNA used to transfect cells. 18 h post-transfection, cells were washed with phosphate buffered saline (PBS) and re-suspended with Trypsin 0.25% EDTA. Cells were then reseeded for experimentation. All experiments were conducted approximately 48 h after the initial transfection, with exception of transfections involving SAP97 shRNA, which were conducted 72 h after initial transfection to optimize the knockdown of endogenous SAP97, as confirmed by Western blotting.
Following transfection, HEK 293 cells were re-seeded into 12-well plates. […] Cells were washed with cold HBSS and treated with mouse anti-HA antibody (1:500) for 45 min on ice. […] Samples were run on a FACSCalibur cytometer using BD CellQuest Pro software until 10,000 cells were counted. The geometric mean of fluorescence was determined using FlowJo analysis software, with less fluorescence corresponding to less CRFR1 on the membrane.

[1] = first experiment, CRF 1.5 μg into medial prefrontal cortex
[2] = second experiment (M100907 study), CRF 1.5 μg mPFC, M100907 0.25 mg/kg i.p.

T1 sequence (P28223 whole entry): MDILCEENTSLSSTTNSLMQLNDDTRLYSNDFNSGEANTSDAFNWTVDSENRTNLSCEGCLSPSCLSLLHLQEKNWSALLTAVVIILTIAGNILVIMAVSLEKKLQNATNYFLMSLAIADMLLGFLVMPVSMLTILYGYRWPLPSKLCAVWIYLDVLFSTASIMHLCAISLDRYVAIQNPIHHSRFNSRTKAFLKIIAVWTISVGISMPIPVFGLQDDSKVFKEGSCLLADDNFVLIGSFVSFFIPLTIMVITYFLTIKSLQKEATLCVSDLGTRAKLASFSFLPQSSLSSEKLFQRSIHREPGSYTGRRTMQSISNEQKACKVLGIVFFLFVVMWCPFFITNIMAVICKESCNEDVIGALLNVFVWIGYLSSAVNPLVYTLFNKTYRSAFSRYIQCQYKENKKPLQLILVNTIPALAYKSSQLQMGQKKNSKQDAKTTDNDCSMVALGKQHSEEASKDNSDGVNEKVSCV

## CRF: 41 amino acid peptide that activates the HPA axis; agonist of CRF receptors
5-HT2AR; CRF pretreatment 500 nM for 30 min, cells expressing 5-HT2AR along with CRFR1
  increase in maximum efficacy (EMAX) for 5-HT2AR-stimulated inositol phosphate formation: 40±4.7%
5-HT2AR; HEK 293 cells expressing 5-HT2AR in the absence of CRFR1, CRF 500 nM 30 min
  effect of pretreatment on 5-HT dose-response curve for inositol phosphate formation, 5-HT2AR: had no effect
5-HT2CR; CRF 500 nM 30 min, cells expressing 5-HT2CR alone, CRFR1 alone or both receptors
  inositol phosphate formation by CRF treatment itself: did not result in inositol phosphate formation
5-HT2CR; CRF pretreatment 500 nM for 30 min, cells expressing 5-HT2CR along with CRFR1
  increase in maximum efficacy (EMAX) for 5-HT2CR-stimulated inositol phosphate formation: 47±5.5%
5-HT2CR; HEK 293 cells expressing 5-HT2CR in the absence of CRFR1, CRF 500 nM 30 min
  effect of pretreatment on 5-HT dose-response curve for inositol phosphate formation, 5-HT2CR: had no effect
mice; [1]
  latency to enter an open arm of the plus maze: had no effect
  number of entries into the closed arms of the plus maze: did not vary
  number of entries onto the open arms of the plus maze: had no effect
mice; [2]
  frequency of open arm entries in the plus maze: neither CRF nor DOI alone affected the frequency of open arm entries
  latency to enter the open arms of the plus maze: moderate, but statistically significant increase
  time spent in the closed arms of the plus maze: unaffected
mice; second experiment (M100907 study), CRF 1.5 μg mPFC, M100907 0.25 mg/kg i.p., relative to vehicle
  entries to the closed arms of the plus maze: increased closed arm entries
HA-CRFR1
  loss of cell surface HA-CRFR1: 24±4%
